In patent publication US9833455B2, “Preparation and methods of use for ortho-aryl 5-membered heteroaryl-carboxamide containing multi-targeted kinase inhibitors” (Spacefill Enterprises LLC, priority 2011, dated 2017):
Values belong to the compound of their own block, whether it stands above or below them.

Experiments:
[1] = molecular target: BRAF(V600E) (Homo sapiens, UniProt P15056, V600E); assay: LanthaScreen assay, side by side IC50 comparison; assay type: biochemical; details: LanthaScreen assay, side by side comparison
Description: To test both our binding mode hypothesis and to see if these structural differences could be taken exploited to impart selectivity and potency improvements, I-13, in which the lipophilic 2-trifluoromethy substituent on imidazole ring of inhibitor KIN-035, was replaced by the polar 2-methylsulfonyl substitutent. […] To address this issue, real time kinetic experiments were performed.

[2] = molecular target: T1, CDK11 (Homo sapiens, UniProt Q9BWU1); details: 1 μM, duplicate, without preincubation; cited from earlier work
T1 construct: literature Ambit Biosciences
T1 sequence (Q9BWU1 whole entry): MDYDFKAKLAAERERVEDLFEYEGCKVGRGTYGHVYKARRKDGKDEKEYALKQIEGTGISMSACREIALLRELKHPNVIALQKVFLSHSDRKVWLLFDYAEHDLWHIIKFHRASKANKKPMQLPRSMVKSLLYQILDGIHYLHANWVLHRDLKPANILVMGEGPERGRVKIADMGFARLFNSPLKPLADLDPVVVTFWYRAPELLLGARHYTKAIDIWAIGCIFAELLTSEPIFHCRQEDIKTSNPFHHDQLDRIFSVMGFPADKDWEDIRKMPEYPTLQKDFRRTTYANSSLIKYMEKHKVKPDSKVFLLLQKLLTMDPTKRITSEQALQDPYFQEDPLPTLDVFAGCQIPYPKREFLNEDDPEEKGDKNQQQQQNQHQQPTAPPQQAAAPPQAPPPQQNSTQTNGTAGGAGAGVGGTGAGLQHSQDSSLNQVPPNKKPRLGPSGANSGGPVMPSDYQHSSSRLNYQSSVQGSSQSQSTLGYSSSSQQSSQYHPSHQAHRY

[3] = molecular target: T2, CSF1R (Homo sapiens, UniProt P07333); details: 1 μM, duplicate, without preincubation; cited from earlier work
T2 construct: literature Ambit Biosciences
T2 sequence (P07333 20-972): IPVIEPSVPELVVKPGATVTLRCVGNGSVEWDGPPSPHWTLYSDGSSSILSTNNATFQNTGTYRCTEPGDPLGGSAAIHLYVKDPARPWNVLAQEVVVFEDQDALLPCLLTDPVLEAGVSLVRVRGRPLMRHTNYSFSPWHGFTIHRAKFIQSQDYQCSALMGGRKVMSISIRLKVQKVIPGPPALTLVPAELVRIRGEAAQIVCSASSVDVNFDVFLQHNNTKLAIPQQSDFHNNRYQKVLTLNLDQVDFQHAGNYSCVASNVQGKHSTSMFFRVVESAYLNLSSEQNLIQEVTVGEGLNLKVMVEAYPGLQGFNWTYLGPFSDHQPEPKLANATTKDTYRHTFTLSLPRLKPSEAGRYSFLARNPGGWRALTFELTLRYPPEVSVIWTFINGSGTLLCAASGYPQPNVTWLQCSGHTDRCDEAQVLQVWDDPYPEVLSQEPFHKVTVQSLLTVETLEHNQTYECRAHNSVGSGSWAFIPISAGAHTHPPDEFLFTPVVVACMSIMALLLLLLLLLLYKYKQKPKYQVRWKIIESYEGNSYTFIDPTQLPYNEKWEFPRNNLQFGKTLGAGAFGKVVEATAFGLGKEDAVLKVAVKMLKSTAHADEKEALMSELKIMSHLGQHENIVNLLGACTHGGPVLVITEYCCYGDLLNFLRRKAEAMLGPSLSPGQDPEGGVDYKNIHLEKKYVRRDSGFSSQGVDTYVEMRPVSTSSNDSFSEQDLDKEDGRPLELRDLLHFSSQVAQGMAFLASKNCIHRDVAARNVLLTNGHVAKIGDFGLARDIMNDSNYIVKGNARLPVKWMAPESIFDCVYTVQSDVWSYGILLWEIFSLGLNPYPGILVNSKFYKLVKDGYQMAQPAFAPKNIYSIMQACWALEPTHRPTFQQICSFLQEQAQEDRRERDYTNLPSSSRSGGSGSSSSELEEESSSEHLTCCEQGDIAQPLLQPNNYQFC

[4] = molecular target: T3, DCAMKL1 (Homo sapiens, UniProt O15075); details: 1 μM, duplicate, without preincubation; cited from earlier work
T3 construct: literature Ambit Biosciences
T3 sequence (O15075 1-740): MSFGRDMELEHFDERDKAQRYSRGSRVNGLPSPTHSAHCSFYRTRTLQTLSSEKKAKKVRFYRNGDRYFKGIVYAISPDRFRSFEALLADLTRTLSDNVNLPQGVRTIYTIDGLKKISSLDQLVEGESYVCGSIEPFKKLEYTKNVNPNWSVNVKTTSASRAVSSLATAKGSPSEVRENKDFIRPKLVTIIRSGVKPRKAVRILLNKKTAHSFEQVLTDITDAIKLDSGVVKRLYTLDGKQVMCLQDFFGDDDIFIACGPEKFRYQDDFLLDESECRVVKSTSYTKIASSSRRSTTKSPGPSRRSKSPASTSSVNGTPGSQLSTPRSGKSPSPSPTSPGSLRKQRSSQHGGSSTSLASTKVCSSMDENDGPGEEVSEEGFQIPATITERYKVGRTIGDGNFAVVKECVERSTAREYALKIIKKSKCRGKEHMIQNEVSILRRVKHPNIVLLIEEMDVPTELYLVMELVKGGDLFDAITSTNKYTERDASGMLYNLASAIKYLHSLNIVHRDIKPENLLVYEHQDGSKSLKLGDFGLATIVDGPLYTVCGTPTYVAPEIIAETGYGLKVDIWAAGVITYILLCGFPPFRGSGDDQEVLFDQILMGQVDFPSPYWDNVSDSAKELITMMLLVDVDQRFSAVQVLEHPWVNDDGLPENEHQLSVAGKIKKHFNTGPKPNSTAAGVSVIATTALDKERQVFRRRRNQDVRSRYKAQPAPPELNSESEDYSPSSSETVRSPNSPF

[5] = molecular target: T4, EGFR(L858R) (Homo sapiens, UniProt P00533, L858R); details: 1 μM, duplicate, without preincubation; cited from earlier work
T4 construct: literature Ambit Biosciences

[6] = molecular target: T5, ERBB4 (Homo sapiens, UniProt Q15303); details: 1 μM, duplicate, without preincubation; cited from earlier work
T5 construct: literature Ambit Biosciences

[7] = molecular target: T6, p38-alpha (Homo sapiens, UniProt Q16539); details: 1 μM, duplicate, without preincubation; cited from earlier work
T6 construct: literature Ambit Biosciences
T6 sequence (Q16539 whole entry): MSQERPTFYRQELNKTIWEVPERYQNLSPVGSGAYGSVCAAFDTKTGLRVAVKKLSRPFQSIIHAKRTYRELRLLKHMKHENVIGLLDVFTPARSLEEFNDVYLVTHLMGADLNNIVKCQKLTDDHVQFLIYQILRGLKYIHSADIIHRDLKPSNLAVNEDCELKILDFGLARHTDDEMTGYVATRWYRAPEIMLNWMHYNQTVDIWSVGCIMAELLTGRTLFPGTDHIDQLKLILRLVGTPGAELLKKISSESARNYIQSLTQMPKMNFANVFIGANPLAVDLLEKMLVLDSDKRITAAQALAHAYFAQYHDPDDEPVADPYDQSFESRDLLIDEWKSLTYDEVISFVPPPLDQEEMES

[8] = molecular target: T7, PIK3CA (Homo sapiens, UniProt P42336); details: 1 μM, duplicate, without preincubation; cited from earlier work
T7 construct: literature Ambit Biosciences
T7 sequence (P42336 whole entry): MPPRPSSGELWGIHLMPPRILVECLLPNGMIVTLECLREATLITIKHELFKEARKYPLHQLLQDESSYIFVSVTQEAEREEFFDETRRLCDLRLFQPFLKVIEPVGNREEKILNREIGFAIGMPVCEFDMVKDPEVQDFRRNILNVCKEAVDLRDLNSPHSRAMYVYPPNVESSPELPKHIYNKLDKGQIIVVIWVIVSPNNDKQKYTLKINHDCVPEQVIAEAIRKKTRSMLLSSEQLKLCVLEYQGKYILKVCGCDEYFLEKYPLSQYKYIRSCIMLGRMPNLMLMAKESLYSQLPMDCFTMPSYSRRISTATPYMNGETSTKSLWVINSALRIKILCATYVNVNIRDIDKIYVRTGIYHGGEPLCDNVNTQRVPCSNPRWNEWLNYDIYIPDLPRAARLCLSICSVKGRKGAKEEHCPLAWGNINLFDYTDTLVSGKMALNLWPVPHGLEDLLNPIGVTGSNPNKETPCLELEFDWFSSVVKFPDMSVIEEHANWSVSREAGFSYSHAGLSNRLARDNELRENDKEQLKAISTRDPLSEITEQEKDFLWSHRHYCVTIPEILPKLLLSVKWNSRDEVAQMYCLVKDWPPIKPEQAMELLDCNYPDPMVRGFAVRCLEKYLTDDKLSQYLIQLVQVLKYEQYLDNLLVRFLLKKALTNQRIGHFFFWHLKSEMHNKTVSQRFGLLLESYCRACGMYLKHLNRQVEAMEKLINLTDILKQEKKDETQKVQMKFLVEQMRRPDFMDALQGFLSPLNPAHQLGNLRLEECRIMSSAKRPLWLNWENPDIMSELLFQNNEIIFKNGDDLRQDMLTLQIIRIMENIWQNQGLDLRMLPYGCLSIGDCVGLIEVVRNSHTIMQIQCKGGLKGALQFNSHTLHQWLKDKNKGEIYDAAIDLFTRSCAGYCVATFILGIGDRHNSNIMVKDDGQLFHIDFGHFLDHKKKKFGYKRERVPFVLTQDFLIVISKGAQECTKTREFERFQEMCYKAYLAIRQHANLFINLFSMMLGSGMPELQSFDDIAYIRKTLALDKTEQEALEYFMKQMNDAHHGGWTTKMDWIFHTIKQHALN

[9] = molecular target: T8, RIOK2 (Homo sapiens, UniProt Q9BVS4); details: 1 μM, duplicate, without preincubation; cited from earlier work
T8 construct: literature Ambit Biosciences
T8 sequence (Q9BVS4 whole entry): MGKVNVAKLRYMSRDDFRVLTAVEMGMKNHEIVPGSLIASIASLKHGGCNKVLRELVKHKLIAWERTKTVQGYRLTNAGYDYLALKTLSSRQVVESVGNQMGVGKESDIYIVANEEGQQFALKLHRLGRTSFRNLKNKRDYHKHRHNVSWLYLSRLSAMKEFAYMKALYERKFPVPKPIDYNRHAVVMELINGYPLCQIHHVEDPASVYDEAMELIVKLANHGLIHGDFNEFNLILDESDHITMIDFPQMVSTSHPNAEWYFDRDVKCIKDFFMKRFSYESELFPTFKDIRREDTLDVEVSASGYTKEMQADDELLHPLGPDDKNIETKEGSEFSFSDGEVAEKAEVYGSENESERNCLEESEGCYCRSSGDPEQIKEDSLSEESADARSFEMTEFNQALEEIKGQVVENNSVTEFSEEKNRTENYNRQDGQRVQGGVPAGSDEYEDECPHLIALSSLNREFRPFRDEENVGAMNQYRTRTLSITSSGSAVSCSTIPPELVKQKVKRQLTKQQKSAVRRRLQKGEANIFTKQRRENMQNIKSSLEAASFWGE

[10] = molecular target: T9, VEGFR2 (Homo sapiens, UniProt P35968); details: 1 μM, duplicate, without preincubation; cited from earlier work
T9 construct: literature Ambit Biosciences

[11] = molecular target: T2, CSF1R; details: cited from earlier work
[12] = molecular target: EPHA2 (Homo sapiens, UniProt P29317); design: literature Ambit Biosciences; details: 1 μM, duplicate, without preincubation; cited from earlier work
[13] = molecular target: T10, BMPR2 (Homo sapiens, UniProt Q13873); details: 1 μM, duplicate, without preincubation; cited from earlier work
T10 construct: literature Ambit Biosciences
T10 sequence (Q13873 27-1038): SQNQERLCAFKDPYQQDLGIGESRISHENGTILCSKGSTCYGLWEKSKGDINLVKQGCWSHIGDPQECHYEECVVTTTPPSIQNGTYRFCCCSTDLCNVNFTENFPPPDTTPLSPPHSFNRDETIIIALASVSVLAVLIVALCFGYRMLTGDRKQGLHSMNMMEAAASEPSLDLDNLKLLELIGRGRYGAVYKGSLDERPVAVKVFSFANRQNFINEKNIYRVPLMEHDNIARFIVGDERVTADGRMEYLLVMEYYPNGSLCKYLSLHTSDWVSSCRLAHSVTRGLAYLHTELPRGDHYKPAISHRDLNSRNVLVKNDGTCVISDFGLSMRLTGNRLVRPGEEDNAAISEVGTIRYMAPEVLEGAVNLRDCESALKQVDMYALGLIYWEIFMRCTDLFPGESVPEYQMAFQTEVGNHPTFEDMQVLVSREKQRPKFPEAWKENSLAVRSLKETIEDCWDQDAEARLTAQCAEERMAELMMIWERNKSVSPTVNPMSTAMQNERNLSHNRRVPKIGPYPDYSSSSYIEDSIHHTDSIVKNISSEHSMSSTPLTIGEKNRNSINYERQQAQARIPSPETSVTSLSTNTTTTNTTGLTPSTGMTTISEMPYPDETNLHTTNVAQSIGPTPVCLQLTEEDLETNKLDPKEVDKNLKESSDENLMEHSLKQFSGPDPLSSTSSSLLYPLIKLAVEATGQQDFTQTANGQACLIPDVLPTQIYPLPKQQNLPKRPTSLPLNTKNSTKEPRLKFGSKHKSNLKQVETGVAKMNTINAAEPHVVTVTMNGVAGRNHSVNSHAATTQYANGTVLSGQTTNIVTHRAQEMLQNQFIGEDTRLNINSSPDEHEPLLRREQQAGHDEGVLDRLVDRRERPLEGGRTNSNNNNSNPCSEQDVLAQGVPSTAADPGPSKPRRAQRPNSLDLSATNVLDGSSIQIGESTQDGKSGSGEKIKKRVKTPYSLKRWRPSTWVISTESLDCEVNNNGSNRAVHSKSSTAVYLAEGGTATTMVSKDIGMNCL

[14] = molecular target: T11, CDK3 (Homo sapiens, UniProt Q00526); details: 1 μM, duplicate, without preincubation; cited from earlier work
T11 construct: literature Ambit Biosciences

[15] = molecular target: T12, FGFR3 (Homo sapiens, UniProt P22607); details: 1 μM, duplicate, without preincubation; cited from earlier work
T12 construct: literature Ambit Biosciences

[16] = molecular target: T13, IKK-alpha (Homo sapiens, UniProt O15111); details: 1 μM, duplicate, without preincubation; cited from earlier work
T13 construct: literature Ambit Biosciences

[17] = molecular target: T14, ULK2 (Homo sapiens, UniProt Q8IYT8); details: 1 μM, duplicate, without preincubation; cited from earlier work
T14 construct: literature Ambit Biosciences

[18] = molecular target: ABL-T315I (Homo sapiens, UniProt P00519, T315I); assay: Nanosyn kinase profiling, % inhibition; assay type: biochemical; details: panel of 230 kinases
Description: (§1) “Inhibiting kinase activity” means to decrease the production of an phosphor-peptide by a particular kinase that can be separated by analytical techniques. For example, a comprehensive platform of kinase, protease, phosphatase and epigenetic assays that utilizes cutting-edge microfluidics and informatics tools to provide accurate and rapid results. Profiling data in this application were determined using these techniques at Nanosyn Inc. IC50 data were provided by Reaction Biology Inc using a P33 radiolabeled kinase assay.
(§2) More modest activity for Aurora-A, FLT-1/4, KDR, KIT, PDGFRs was accompanied by better activity for B-Raf mutant and wild-type forms, Modest inhibition of MEK-1, BTK, c-Met, RET, and RON was also observed. […] Moreover, the observed inhibition of MEK-1 with 1-12 and TYK2 with I-6 represents additional activities against kinases for which no type-II inhibitors have been reported to date. […] To further evaluate the scope of inhibition, I-6 was evaluated against a larger panel of 230 kinases, Table-22.

[19] = molecular target: ABL1 (Homo sapiens, UniProt P00519); assay: Nanosyn kinase profiling, % inhibition; assay type: biochemical; details: panel of 230 kinases
Description: as §1, §2

[20] = molecular target: BLK (Homo sapiens, UniProt P51451); assay: Nanosyn kinase profiling, % inhibition; assay type: biochemical; details: panel of 230 kinases
Description: as §1, §2

[21] = molecular target: EPH-A1 (Homo sapiens, UniProt P21709); assay: Nanosyn kinase profiling, % inhibition; assay type: biochemical; details: panel of 230 kinases
Description: as §1, §2

[22] = molecular target: EPH-B2 (Homo sapiens, UniProt P29323); assay: Nanosyn kinase profiling, % inhibition; assay type: biochemical; details: panel of 230 kinases
Description: as §1, §2

[23] = molecular target: LYNA (Homo sapiens, UniProt P07948); assay: Nanosyn kinase profiling, % inhibition; assay type: biochemical; details: panel of 230 kinases
Chain of LYNA (P07948 whole entry): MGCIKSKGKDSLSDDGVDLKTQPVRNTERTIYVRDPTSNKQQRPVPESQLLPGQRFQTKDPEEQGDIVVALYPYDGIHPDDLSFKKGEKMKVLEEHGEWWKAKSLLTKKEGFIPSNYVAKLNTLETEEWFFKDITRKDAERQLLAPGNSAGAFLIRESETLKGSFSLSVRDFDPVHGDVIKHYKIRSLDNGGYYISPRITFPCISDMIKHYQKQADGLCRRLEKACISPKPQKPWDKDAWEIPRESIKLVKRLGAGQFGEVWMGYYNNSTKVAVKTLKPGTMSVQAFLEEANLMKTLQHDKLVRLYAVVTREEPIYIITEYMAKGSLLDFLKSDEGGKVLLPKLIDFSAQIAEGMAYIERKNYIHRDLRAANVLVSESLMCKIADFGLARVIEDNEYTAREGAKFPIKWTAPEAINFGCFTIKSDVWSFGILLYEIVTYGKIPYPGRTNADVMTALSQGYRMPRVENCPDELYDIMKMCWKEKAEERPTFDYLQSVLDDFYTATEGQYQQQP
Description: as §1, §2

[24] = molecular target: MUSK (Homo sapiens, UniProt O15146); assay: Nanosyn kinase profiling, % inhibition; assay type: biochemical; details: panel of 230 kinases
Description: as §1, §2

[25] = molecular target: SRC (Homo sapiens, UniProt P12931); assay: Nanosyn kinase profiling, % inhibition; assay type: biochemical; details: panel of 230 kinases
Description: as §1, §2

[26] = molecular target: TYRO3 (Homo sapiens, UniProt Q06418); assay: Nanosyn kinase profiling, % inhibition; assay type: biochemical; details: panel of 230 kinases
Description: as §1, §2

- IC50 [1]: 0.067 µM
Structure (SMILES): Cc1ccc(NC(=O)c2[nH]c(C(F)(F)F)nc2-c2ccc(F)cc2)cc1Nc1ccc2ncn(C)c(=O)c2c1 [KIN-035]
- inhibition of CDK11 [2]: XX (XX > 50% @ 1 μM)
- inhibition of CSF1R [3]: XXX (XXX > 75% @ 1 μM)
- inhibition of DCAMKL1 [4]: X (X > 25% @ 1 μM)
- inhibition of EGFR(L858R) [5]: X (X > 25% @ 1 μM)
- inhibition of ERBB4 [6]: X (X > 25% @ 1 μM)
- inhibition of p38-alpha [7]: XXXX (XXXX > 90% @ 1 μM)
- inhibition of PIK3CA [8]: X (X > 25% @ 1 μM)
- inhibition of RIOK2 [9]: X (X > 25% @ 1 μM)
- inhibition of VEGFR2 [10]: X (X > 25% @ 1 μM)
- improved potency for CSF1R, KIN-032 vs KIN-035 (4-fluoro-substituent) [11]: 70 fold
- inhibition of EPHA2 [12]: XX (XX > 50% @ 1 μM)

Structure (SMILES): Cc1ccc(-c2nc(C(F)(F)F)[nH]c2C(=O)Nc2ccc(C)c(Nc3ccc4ncn(C)c(=O)c4c3)c2)cc1F [KIN-038]
- inhibition of BMPR2 [13]: X (X > 25% @ 1 μM)
- inhibition of CDK11 [2]: X (X > 25% @ 1 μM)
- inhibition of CDK3 [14]: X (X > 25% @ 1 μM)
- inhibition of DCAMKL1 [4]: X (X > 25% @ 1 μM)
- inhibition of FGFR3 [15]: X (X > 25% @ 1 μM)
- inhibition of IKK-alpha [16]: X (X > 25% @ 1 μM)
- inhibition of p38-alpha [7]: XX (XX > 50% @ 1 μM)
- inhibition of PIK3CA [8]: X (X > 25% @ 1 μM)
- inhibition of RIOK2 [9]: X (X > 25% @ 1 μM)
- inhibition of ULK2 [17]: X (X > 25% @ 1 μM)

- inhibition at 5 µM [18]: ≥ 50%
- inhibition at 5 µM [19]: ≥ 50%
- inhibition at 5 µM [20]: ≥ 50%
- inhibition at 5 µM [21]: ≥ 50%
- inhibition at 5 µM [22]: ≥ 50%
- inhibition at 5 µM [23]: ≥ 50%
- inhibition at 5 µM [24]: ≥ 50%
- inhibition at 5 µM [25]: ≥ 50%
- inhibition at 5 µM [26]: ≥ 50%
Structure (SMILES): CNC(=O)c1cc(Oc2ccc(NC(=O)c3nc(C(F)(F)F)[nH]c3-c3ccc(F)cc3)cc2)ccn1 [Inhibitor I-6, 4-(4-{[5-(4-Fluoro-phenyl)-2-trifluoromethyl-3H-imidazole-4-carbonyl]-amino}-phenoxy)-pyridine-2-carboxylic acid methylamide]
